Assay results taken from ChEMBL document CHEMBL1201862, “PubChem BioAssay data set” (2004).
Activity calls are given as the source filed them.

Experiments:
[1] = target: Insulin-degrading enzyme (Homo sapiens, UniProt P14735); assay: Dose Response: Fluorescence polarization-based cell-based high throughput dose response assay for inhibitors of insulin-degrading enzyme (IDE). [Related pubchem assays: 434962 (Primary screen (IDE inhibitors in singlicate)), 449730 (Counterscreen (Cytotoxicity in triplicate)), 435028 (Confirmation (IDE inhibitors in triplicate)), 434984 (Summary …; type: functional
[2] = target: T1, Rac GTPase-activating protein 1 (Homo sapiens, UniProt Q9H0H5); assay: MgcRacGAP GTPase-activating activity inhibitors, confirmation, biochemical, ADP Hunter fluorescence, primary and confirmatory (AID 624330); type: functional
T1 sequence (Q9H0H5 whole entry): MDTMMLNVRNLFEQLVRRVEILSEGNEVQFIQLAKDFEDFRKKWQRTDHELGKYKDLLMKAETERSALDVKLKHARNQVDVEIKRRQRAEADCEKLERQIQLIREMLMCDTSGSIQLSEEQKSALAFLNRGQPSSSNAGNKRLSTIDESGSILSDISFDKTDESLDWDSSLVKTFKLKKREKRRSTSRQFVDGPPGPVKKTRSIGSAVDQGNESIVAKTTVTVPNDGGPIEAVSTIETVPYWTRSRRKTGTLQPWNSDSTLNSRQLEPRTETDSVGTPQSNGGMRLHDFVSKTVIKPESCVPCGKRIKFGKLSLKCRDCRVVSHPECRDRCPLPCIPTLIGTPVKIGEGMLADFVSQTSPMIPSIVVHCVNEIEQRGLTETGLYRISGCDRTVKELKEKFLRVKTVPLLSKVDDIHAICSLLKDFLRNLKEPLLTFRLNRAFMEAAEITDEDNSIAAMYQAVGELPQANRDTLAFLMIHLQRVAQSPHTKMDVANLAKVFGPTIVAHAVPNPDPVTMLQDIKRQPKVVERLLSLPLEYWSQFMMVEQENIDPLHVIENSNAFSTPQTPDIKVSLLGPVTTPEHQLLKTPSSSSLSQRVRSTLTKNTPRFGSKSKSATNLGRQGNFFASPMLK

[3] = HeLa cell cytotoxicity, dose response, cytotoxicity control for MgcRacGAP inhibitor project (AID 624300); type: functional
[4] = Counterscreen for IDE inhibitors: Luminescence-based cell-based high throughput dose response assay to identify compounds that are cytotoxic to HEK cells. [Related pubchem assays: 434962 (Primary screen (IDE inhibitors in singlicate)), 449730 (Counterscreen (Cytotoxicity in triplicate)), 435028 (Confirmation (IDE inhibitors in triplicate)) …; type: functional; settings: HEK293
[5] = polyadenylation inhibitors in yeast reporter, dose response, luminescence, S. cerevisiae SKY197-pL101 (AID 2525); type: functional, cell-based
[6] = target: T2, Bcl-2-like protein 10 (Homo sapiens, UniProt Q9HD36); assay: Biochemical TR3 FP assay of Bcl-B inhibitor potency, EC50 (AID 1243); type: functional
T2 sequence (Q9HD36 whole entry): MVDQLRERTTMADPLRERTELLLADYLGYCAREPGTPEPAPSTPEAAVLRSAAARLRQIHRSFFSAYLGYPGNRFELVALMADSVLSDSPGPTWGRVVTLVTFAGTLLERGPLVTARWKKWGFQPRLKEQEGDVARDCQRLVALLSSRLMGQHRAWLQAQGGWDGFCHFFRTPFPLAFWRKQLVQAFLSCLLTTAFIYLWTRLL

[7] = target: T3, Induced myeloid leukemia cell differentiation protein Mcl-1 (Homo sapiens, UniProt Q07820); type: functional
[8] = target: Peroxisome proliferator-activated receptor gamma/Nuclear receptor corepressor 2 (Homo sapiens, UniProt P37231+Q9Y618); type: functional
[9] = target: Bcl-2-like protein 1 (Homo sapiens, UniProt Q07817); assay: BCL-XL inhibitors, dose response, selectivity assay for MCL1 inhibitor project, biochemical, fluorescence polarization, 1536-well (AID 2218)
[10] = target: Photoreceptor-specific nuclear receptor (Homo sapiens, UniProt Q9Y5X4); type: functional;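 note: potency for compounds that break the NR2E3 corepressor complex and count as activators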
[11] = target: T3, Induced myeloid leukemia cell differentiation protein Mcl-1; assay: MCL1-BIM BH3 interaction inhibitors, dose response, biochemical, fluorescence polarization, BIM-BH3 peptide, 1536-well (AID 2217)
[12] = target: Cytochrome P450 2C9 (Homo sapiens, UniProt P11712); settings: Potency
Chain of Cytochrome P450 2C9 (P11712 whole entry): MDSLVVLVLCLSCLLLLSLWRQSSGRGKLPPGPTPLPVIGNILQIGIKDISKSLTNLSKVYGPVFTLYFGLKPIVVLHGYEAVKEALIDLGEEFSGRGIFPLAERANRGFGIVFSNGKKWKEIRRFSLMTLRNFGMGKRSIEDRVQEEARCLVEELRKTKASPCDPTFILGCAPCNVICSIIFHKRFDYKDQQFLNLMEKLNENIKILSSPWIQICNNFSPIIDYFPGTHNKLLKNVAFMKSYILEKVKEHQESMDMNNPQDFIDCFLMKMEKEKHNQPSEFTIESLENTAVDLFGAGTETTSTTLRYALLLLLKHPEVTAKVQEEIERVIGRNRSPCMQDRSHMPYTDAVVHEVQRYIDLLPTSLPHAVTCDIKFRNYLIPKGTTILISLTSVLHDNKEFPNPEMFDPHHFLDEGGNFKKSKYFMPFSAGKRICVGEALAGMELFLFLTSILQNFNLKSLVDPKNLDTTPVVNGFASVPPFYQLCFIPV

T3 sequence (Q07820 whole entry): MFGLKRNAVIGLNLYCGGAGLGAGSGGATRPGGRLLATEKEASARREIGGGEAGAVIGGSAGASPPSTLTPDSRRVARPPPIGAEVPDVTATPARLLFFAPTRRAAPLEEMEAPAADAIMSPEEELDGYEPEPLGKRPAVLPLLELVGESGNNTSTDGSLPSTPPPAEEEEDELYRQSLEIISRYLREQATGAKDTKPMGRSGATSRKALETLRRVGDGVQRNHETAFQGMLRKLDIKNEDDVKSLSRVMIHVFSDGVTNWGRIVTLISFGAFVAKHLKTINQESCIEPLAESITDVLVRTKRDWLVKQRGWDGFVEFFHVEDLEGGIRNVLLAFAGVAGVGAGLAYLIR
Chain of Insulin-degrading enzyme (P14735 whole entry): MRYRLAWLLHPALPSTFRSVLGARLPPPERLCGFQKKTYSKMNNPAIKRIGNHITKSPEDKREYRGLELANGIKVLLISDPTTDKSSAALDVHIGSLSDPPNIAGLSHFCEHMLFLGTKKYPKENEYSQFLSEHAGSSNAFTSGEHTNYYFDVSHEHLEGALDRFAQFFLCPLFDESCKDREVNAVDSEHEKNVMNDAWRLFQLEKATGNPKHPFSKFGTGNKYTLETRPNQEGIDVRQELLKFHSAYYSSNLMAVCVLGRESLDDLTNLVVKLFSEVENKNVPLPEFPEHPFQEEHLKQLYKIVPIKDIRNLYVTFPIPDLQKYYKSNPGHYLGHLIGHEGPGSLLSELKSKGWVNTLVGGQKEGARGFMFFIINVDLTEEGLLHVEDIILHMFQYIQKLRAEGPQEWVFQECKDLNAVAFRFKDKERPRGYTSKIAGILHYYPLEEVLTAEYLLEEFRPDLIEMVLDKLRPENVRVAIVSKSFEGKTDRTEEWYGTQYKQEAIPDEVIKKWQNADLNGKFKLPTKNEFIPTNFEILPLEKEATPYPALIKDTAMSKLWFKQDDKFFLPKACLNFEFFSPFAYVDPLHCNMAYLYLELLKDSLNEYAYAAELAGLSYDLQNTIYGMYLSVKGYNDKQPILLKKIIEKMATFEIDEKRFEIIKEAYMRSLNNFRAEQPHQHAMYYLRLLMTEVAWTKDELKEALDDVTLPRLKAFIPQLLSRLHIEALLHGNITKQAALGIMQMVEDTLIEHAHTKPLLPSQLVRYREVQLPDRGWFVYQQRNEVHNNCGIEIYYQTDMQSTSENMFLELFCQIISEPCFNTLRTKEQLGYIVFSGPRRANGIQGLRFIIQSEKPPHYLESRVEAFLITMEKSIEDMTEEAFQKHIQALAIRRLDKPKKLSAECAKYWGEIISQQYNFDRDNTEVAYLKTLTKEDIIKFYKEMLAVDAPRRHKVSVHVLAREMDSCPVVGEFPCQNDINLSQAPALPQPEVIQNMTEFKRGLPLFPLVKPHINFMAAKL
Chain of Peroxisome proliferator-activated receptor gamma/Nuclear receptor corepressor 2 (P37231 whole entry): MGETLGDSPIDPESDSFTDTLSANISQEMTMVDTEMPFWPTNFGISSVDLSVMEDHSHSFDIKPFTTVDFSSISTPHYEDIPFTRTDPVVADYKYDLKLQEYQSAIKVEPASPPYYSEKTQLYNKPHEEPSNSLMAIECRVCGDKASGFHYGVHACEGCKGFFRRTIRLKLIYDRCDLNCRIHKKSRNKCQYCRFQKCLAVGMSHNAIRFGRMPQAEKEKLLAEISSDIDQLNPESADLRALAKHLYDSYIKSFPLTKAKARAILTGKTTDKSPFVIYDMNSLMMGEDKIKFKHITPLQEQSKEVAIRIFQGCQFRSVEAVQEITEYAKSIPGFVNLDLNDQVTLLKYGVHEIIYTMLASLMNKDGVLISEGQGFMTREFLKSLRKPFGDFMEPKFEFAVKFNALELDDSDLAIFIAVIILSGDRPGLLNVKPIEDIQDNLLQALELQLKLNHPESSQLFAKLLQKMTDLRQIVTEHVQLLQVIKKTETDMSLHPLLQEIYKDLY
Chain of Peroxisome proliferator-activated receptor gamma/Nuclear receptor corepressor 2 (Q9Y618 whole entry): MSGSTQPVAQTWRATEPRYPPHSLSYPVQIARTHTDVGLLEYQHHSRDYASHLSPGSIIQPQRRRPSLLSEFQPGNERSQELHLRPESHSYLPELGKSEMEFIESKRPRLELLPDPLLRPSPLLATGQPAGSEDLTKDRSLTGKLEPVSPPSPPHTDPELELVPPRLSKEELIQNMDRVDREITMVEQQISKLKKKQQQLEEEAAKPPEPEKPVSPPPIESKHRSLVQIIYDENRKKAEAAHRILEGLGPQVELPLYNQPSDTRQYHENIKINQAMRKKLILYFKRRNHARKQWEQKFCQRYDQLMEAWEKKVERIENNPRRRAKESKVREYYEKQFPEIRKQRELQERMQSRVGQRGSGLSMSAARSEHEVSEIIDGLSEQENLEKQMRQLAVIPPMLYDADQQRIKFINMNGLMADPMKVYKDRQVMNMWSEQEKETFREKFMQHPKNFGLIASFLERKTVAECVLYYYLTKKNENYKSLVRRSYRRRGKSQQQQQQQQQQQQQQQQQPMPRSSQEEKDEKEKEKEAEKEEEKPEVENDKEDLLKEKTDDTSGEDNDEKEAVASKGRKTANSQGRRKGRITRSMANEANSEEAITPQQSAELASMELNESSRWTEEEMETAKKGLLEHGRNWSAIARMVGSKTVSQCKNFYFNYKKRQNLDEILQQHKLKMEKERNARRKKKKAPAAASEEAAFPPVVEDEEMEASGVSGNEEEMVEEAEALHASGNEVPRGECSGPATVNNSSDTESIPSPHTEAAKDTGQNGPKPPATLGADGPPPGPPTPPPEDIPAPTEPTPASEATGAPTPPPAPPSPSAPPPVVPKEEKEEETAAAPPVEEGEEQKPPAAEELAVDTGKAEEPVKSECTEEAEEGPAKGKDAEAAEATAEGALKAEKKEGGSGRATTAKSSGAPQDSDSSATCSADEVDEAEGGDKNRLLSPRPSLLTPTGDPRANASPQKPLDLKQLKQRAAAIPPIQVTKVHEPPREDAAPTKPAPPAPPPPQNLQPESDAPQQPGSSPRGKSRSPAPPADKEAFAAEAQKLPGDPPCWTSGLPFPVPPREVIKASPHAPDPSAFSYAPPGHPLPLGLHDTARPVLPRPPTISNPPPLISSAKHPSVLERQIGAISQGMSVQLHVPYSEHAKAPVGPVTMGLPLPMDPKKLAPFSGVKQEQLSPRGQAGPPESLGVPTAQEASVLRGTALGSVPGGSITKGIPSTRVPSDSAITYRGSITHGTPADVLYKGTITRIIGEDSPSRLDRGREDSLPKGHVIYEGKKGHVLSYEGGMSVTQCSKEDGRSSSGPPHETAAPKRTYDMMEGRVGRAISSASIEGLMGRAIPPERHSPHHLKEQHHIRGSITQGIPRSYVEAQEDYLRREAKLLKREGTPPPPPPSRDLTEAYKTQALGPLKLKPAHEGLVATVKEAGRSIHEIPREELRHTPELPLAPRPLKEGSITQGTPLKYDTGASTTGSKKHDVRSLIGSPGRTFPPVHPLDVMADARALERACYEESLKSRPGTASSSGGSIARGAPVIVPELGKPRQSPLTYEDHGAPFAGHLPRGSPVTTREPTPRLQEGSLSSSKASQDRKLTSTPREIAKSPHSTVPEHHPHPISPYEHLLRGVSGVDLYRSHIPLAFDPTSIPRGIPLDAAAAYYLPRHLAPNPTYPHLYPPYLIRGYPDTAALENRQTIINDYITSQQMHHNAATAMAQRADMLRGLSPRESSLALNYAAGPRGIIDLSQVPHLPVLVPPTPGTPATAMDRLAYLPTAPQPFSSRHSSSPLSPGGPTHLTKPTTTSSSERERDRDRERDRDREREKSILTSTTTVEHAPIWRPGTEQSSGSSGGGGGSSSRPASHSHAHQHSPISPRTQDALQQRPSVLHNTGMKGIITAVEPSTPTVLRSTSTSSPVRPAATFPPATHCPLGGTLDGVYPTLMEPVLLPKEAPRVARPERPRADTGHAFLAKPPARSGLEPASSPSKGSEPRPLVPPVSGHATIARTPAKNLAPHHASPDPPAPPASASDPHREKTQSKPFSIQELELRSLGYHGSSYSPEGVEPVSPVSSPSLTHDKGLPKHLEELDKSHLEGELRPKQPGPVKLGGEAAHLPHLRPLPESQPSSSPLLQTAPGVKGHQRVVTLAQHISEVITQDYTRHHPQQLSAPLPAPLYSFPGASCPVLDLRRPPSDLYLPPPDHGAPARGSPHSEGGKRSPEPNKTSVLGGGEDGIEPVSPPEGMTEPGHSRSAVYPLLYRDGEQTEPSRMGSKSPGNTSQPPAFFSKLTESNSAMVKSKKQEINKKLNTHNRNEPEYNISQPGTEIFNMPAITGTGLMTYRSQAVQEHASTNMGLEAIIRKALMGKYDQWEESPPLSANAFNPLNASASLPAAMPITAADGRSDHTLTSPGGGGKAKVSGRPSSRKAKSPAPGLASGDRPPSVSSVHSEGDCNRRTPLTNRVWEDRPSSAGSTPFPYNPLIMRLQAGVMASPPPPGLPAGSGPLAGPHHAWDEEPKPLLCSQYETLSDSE

With `Cc1cc(/C=C2\SC(=S)NC2=O)cc(C)c1O` the IC50 [1] was > 56 µM (not active), the IC50 [2] was 25.8 µM (active) and the CC50 [3] was 100 µM (active). The IC50 [4] was > 55.7 µM (not active).
With `Cc1ccc2[nH]c(/C(C#N)=C/c3ccc([N+](=O)[O-])o3)nc2c1` the EC50 [5] was 4.03 µM (active).
For `Cc1ccc(-c2cc(C(=O)O)c3cc(Br)ccc3n2)o1`, the EC50 [6] was 16.5 µM (active), the IC50 [7] was 2.98 µM (active) and the IC50 [8] was 3.93 µM (active). The IC50 [9] was > 109 µM (not active), the IC50 [10] was > 39.8 µM (not active) and the IC50 [11] was 27.9 µM (not active).
For `CCCCCC[C@H]1C(=O)O[C@@H](C)[C@H](NC(=O)c2cccc(NC=O)c2O)C(=O)O[C@@H](C)[C@@H]1OC(=O)CC(C)C`, the AC50 [12] was 31.6 µM (inconclusive).
